Results as given in patent US8299048B2, “Hexahydrocyclopentyl[f]indazole sulfonamides and derivatives thereof as selective glucocorticoid receptor modulators” (Merck Sharp & Dohme Corp., priority 2008, dated 2012).

Legend:
human GR [1] = target: T1, human GR (Homo sapiens, UniProt P04150); assay: Transrepression Assay (GITAR), TNFα-β-lactamase reporter in U937 cells; format: cell-based; design: U937 cells contain an endogenous glucocorticoid receptor (GR); endogenous in cells; host or cells: U937 cells stably transfected with the TNF-alpha promoter/beta-lactamase reporter; settings: for GITAR > GRAMM % SEP: GITAR Emax minus GRAMMER Emax; for EC50: inflection point, read-out: Transrepression U937 Cells GITAR IP
T1 sequence (P04150 1-777): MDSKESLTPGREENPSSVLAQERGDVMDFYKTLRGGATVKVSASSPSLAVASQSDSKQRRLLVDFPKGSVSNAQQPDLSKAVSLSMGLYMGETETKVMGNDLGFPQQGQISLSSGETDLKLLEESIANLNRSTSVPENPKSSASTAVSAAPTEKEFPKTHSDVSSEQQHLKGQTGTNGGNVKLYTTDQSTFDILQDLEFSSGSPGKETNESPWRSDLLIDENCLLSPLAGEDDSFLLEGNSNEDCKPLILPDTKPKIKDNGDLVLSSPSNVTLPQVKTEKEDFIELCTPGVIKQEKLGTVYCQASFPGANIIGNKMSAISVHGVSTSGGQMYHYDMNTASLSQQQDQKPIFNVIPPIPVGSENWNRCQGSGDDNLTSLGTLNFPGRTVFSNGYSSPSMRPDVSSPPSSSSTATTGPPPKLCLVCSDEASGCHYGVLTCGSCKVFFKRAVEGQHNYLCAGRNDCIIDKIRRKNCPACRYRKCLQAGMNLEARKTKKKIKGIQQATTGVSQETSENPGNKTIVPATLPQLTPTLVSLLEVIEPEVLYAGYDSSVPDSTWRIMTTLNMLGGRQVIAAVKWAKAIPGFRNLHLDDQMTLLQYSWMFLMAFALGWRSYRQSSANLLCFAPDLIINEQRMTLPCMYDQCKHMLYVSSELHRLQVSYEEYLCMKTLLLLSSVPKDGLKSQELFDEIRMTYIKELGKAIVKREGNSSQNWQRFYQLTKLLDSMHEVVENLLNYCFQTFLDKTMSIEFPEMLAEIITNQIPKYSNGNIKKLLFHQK
How it was run: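 U937 cells stably carrying a TNF-α promoter–β-lactamase reporter, with endogenous GR, are preincubated with compound 30–45 min at 37 °C, then stimulated with PMA (5 ng/ml final) and LPS (100 ng/ml final) overnight (~18 hr). β-Lactamase is read with CCF2-AM substrate; repression by 100 nM dexamethasone defines 100%.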

human GR [2] = target: T1, human GR; assay: Trans-Activation Modulation of Glucocorticoid Receptor (GRAMMER), MMTV-LUC reporter, agonist mode; format: cell-based; design: endogenous in cells; settings: for Emax: A549, A549 cells, read-out: Transactivation A549 Cells GRAMMER Emax; for EC50: inflection point, read-out: Transactivation A549 Cells GRAMMER IP
How it was run: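 Readout is luciferase from a modified MMTV LTR promoter after 24 h compound exposure alongside 10 nM dexamethasone (100% activity reference), DMSO ≤1%.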

[3] = U-937, U937 cells, maximum activity, read-out: Transrepression U937 Cells GITAR Emax
[4] = U-937, activity repressed by 100 nM dexamethasone alone set as 100%, read-out: maximal activity in the transrepression (GITAR) assay

Row | Compound | GITAR > GRAMM % SEP (human GR [1]) [%] | EC50 (human GR [1]; U937 cells) [nM] | Emax (human GR [1]; [3]) [%] | Emax (human GR [1]; [4]) [%] | Emax (human GR [2]; maximum activity) [%] | EC50 (human GR [2]; A549 cells) [nM] | Transrepression U937 Cells GITAR Emax (human GR [1]; U937 cells, maximum activity) [%] | Transactivation A549 Cells GRAMMER Emax (human GR [2]; A549 cells, maximum activity) [%]
1 | CNC(=O)Nc1ccc(S(=O)(=O)N(CCO)C[C@H]2CCC3=Cc4c(cnn4-c4ccc(F)cc4)C[C@@]32C)c(Cl)c1 [Example 76, 2-chloro-N-{[(4αR,5S)-1-(4-fluorophenyl)-4α-methyl-1,4,4α,5,6,7-hexahydrocyclopenta[f]indazol-5-yl]methyl}-N-(2-hydroxyethyl)-4-{[(methylamino)carbonyl]amino}-benzenesulfonamide] | 9.5 | 2110 | 13 | > 5 | 3.5 | 1960 |  | 
2 | C[C@]12Cc3cnn(-c4ccc(F)cc4)c3C=C1CC[C@@H]2CN(CCO)S(=O)(=O)c1ccc(Oc2ccccc2)cc1 [Example 79, N-{[(4αR,5S)-1-(4-fluorophenyl)-4α-methyl-1,4,4α,5,6,7-hexahydrocyclopenta[f]indazol-5-yl]methyl}-N-(2-hydroxyethyl)-4-phenoxybenzenesulfonamide] | 64.3 | 1950 | 71.8 | > 5 | 7.5 | 1320 |  | 
3 | Cn1nc(C(F)(F)F)cc1-c1ccc(S(=O)(=O)N(CCO)C[C@H]2CCC3=Cc4c(cnn4-c4ccc(F)cc4)C[C@@]32C)s1 [Example 67, N-{[(4αR,5S)-1-(4-fluorophenyl)-4α-methyl-1,4,4α,5,6,7-hexahydrocyclopenta[f]indazol-5-yl]methyl}-N-(2-hydroxyethyl)-5-[1-methyl-3-(trifluoromethyl)-1H-pyrazole-5-yl]thiophene-2-sulfonamide] | 22.8 | 2060 | 29.3 | > 5 | 6.5 | 450 |  | 
4 | Cc1ccccc1S(=O)(=O)N(CCO)C[C@H]1CCC2=Cc3c(cnn3-c3ccc(F)cc3)C[C@@]21C [Example 77, N-{[(4αR,5S)-1-(4-fluorophenyl)-4α-methyl-1,4,4α,5,6,7-hexahydrocyclopenta[f]indazol-5-yl]methyl}-N-(2-hydroxyethyl)-2-methylbenzenesulfonamide] | 25.7 | 1130 | 43.6 | > 5 | 17.9 | 901 |  | 
5 | C[C@]12Cc3cnn(-c4ccc(F)cc4)c3C=C1CC[C@@H]2CN(CCO)S(=O)(=O)c1ccccc1Cl [Example 81, 2-chloro-N-{[(4αR,5S)-1-(4-fluorophenyl)-4α-methyl-1,4,4α,5,6,7-hexahydrocyclopenta[f]indazol-5-yl]methyl}-N-(2-hydroxyethyl)benzenesulfonamide] | 59.5 | 959 | 76.7 | > 5 | 17.2 | 461 |  | 
6 | C[C@]12Cc3cnn(-c4ccc(F)cc4)c3C=C1CC[C@@H]2CN(CCO)S(=O)(=O)c1ccc(Oc2ccccn2)cc1 [Example 74, N-{[(4αR,5S)-1-(4-fluorophenyl)-4α-methyl-1,4,4α,5,6,7-hexahydrocyclopenta[f]indazol-5-yl]methyl}-N-(2-hydroxyethyl)-4-(pyridin-2-yloxy)benzenesulfonamide] | 9.9 | 1140 | 44.1 | > 5 | 34.1 | 1030 |  | 
7 | Cc1ccc(CCN(C[C@H]2CCC3=Cc4c(cnn4-c4ccc(F)cc4)C[C@@]32C)S(=O)(=O)c2ccccc2F)cc1 [Example 91, 2-fluoro-N-{[(4αR,5S)-1-(4-fluorophenyl)-4α-methyl-1,4,4α,5,6,7-hexahydrocyclopenta[f]indazol-5-yl]methyl}-N-[2-(4-methylphenyl)ethyl]benzenesulfonamide] | 50.8 | 973 | 61.5 | > 5 | 10.7 | 643 |  | 
8 | C[C@]12Cc3cnn(-c4ccc(F)cc4)c3C=C1CC[C@@H]2CN(CCc1ccccn1)S(=O)(=O)Cc1cccnc1 [Example 1, N-{[(4αR,5S)-1-(4-Fluorophenyl)-4α-methyl-1,4,4α,5,6,7-hexahydrocyclopenta[f]indazol-5-yl]methyl}-1-pyridin-3-yl-N-(2-pyridin-2-ylethyl)methanesulfonamide] | 41.9 | 407 |  |  |  | 351 | 73.5 | 31.6
9 | Cc1ccc(S(=O)(=O)N(CCO)C[C@H]2CCC3=Cc4c(cnn4-c4ccc(F)cc4)C[C@@]32C)s1 [Example 64, N-{[(4αR,5S)-1-(4-fluorophenyl)-4α-methyl-1,4,4α,5,6,7-hexahydrocyclopenta[f]indazol-5-yl]methyl}-N-(2-hydroxyethyl)-5-methylthiophene-2-sulfonamide] | 21.1 | 731 | 29 | > 5 | 7.9 | 622 |  | 
10 | C[C@]12Cc3cnn(-c4ccc(F)cc4)c3C=C1CC[C@@H]2CN(CCO)S(=O)(=O)c1cc(C(F)(F)F)ccc1Cl [Example 80, 2-chloro-N-{[(4αR,5S)-1-(4-fluorophenyl)-4α-methyl-1,4,4α,5,6,7-hexahydrocyclopenta[f]indazol-5-yl]methyl}-N-(2-hydroxyethyl)-5-(trifluoromethyl)benzenesulfonamide] | 64.0 | 2580 | 70 | > 5 | 6 | 1140 |  | 

More lines, in order of falling EC50 (human GR [1]; U937 cells), values ahead:

Row | GITAR > GRAMM % SEP (human GR [1]) [%] | EC50 (human GR [1]; U937 cells) [nM] | Emax (human GR [1]; [3]) [%] | Emax (human GR [1]; [4]) [%] | Emax (human GR [2]; maximum activity) [%] | EC50 (human GR [2]; A549 cells) [nM] | Compound | Transrepression U937 Cells GITAR Emax (human GR [1]; U937 cells, maximum activity) [%] | Transactivation A549 Cells GRAMMER Emax (human GR [2]; A549 cells, maximum activity) [%]
11 | 32.4 | 646 | 57.7 | > 5 | 25.3 | 618 | C[C@]12Cc3cnn(-c4ccc(F)cc4)c3C=C1CC[C@@H]2CN(CCc1ccccc1F)S(=O)(=O)Cc1cccc(C(F)(F)F)c1 [Example 88, N-[2-(2-fluorophenyl)ethyl]-N-{[(4αR,5S)-1-(4-fluorophenyl)-4α-methyl-1,4,4α,5,6,7-hexahydrocyclopenta[f]indazol-5-yl]methyl}-1-[3-(trifluoromethyl)phenyl]methanesulfonamide] |  | 
12 | 26.9 | 493 | 68.5 | > 5 | 41.6 | 504 | C[C@]12Cc3cnn(-c4ccc(F)cc4)c3C=C1CC[C@@H]2CN(CCc1ccccc1Cl)S(=O)(=O)c1ccccc1F [Example 92, N-[2-(2-chlorophenyl)ethyl]-2-fluoro-N-{[(4αR,5S)-1-(4-fluorophenyl)-4α-methyl-1,4,4α,5,6,7-hexahydrocyclopenta[f]indazol-5-yl]methyl}benzenesulfonamide] |  | 
13 | 25.5 | 486 | 60.8 | > 5 | 35.3 | 475 | C[C@]12Cc3cnn(-c4ccc(F)cc4)c3C=C1CC[C@@H]2CN(CCO)S(=O)(=O)c1cc(F)cc(F)c1 [Example 72] |  | 
14 | 19.2 | 302 | 82.3 | > 5 | 63.1 | 257 | Cc1noc(C)c1S(=O)(=O)N(CCO)C[C@H]1CCC2=Cc3c(cnn3-c3ccc(F)cc3)C[C@@]21C [Example 71, N-{[(4αR,5S)-1-(4-fluorophenyl)-4α-methyl-1,4,4α,5,6,7-hexahydrocyclopenta[f]indazol-5-yl]methyl}-N-(2-hydroxyethyl)-3,5-dimethylisoxazole-4-sulfonamide] |  | 
